Laboratory results reported in US20220135526A1, “QUATERNARY AMMONIUM SALT COMPOUND, PREPARATION METHOD THEREFOR AND USE THEREOF” (WEST CHINA HOSPITAL, SICHUAN UNIVERSITY, priority 2019, published 2022).

Experiments:
back skin of SD rat = assay: Local anesthetic effect by subcutaneous infiltration (back skin, Von Frey fiber 100 g); type: in vivo; conditions: SD rats, 0.5 mL subcutaneous in saline; compounds 6 mmol/L, controls 0.75% (22 mmol/L) and 2% (74 mmol/L)
Description: After the back of SD rat weighing 250-300 g (half female and half male) was shaved and disinfected, a circle with a diameter of about 1.5 cm was drawn on the side of the exposed back, and the circle is divided into 6 equal parts. […] Among the Von Frey fiber yarns, the one with a strength of 100 g was bound to the needle for local skin stimulation. One minute After the drug was injected, the above method was used to stimulate in 6 divisions. […] If back skin contraction was observed, the local anesthetic effect was considered as loss. […] Each compound was tested with 10 rats.

rat's sciatic nerve = assay: Local anesthetic effect after injection near the rat sciatic nerve (von Frey stimulation; Postural Extensor Thrust for motor function); type: in vivo; conditions: SD rats, 0.5 mL near sciatic nerve, compounds 20 mmol/mL; for Duration of motor block: Postural Extensor Thrust; for Duration of motor block / Duration of sensory block: levobupivacaine 0.75%, lidocaine 2%; for Local anesthesia onset time: levobupivacaine 0.75% (22 mmol/L), lidocaine 2% (74 mmol/L); for Duration of sensory block: von Frey
Description: Dosage: for lidocaine group, lidocaine was formulated with distilled water into a solution at the concentration of 2% (74 mmol/L); for levobupivacaine group, levobupivacaine was formulated with distilled water into a solution at the concentration of 0.75% (22 mmol/L); the compound of the present invention was formulated with distilled water into a solution at the concentration of […].
The injection volume for each rat was 0.5 mL, which was guided by a nerve locator and injected near the rat's sciatic nerve. Using von Frey stimulator, the rats were stimulated the soles of the feet in the injected side, to observe the effect of local anesthesia. Meanwhile, Postural Extensor Thrust (PET) was used to evaluate the motor function of the rat: the rat was lifted vertically and the hindlimb in the injected side pedaled on the platform of the electronic balance. […] When the limb was completely paralyzed, the reading was the limb's own weight, about 20 g. If the measured value was more than half of the difference between the baseline and the limb weight, the motor function was regarded as recovery, and if the value was […], the motor function was regarded as loss.

[1] = QX314 with the addition of surfactants (Kohane, PNAS 2010); cited from earlier work

SMILES | Duration of local anesthesia (median) (back skin of SD rat) [h] | Local anesthesia onset time (median) (back skin of SD rat) [min] | Duration of motor block (rat's sciatic nerve) [h] | Local anesthesia onset time (rat's sciatic nerve) [min] | Duration of sensory block (rat's sciatic nerve) [h] | duration of local anesthesia [1]
Cc1cccc(C)c1NC(=O)C[N+](CCCCO)(CCCCO)CCCCCCCCN1CCCCCCC1C(=O)Nc1c(C)cccc1C (stereo not shown) [Example 44 product] | 51 | 2 | 16 | 5 | 69 | –
Cc1cccc(C)c1NC(=O)C[N+](CCCCCCCS)(CCCCCCCN1CCCCC1C(=O)Nc1c(C)cccc1C)CCCCCC(=O)O (stereo not shown) [Example 45 product] | 89 | 1 | 20 | 3 | 58 | –
Cc1cccc(C)c1NC(=O)C[N+]1(CCCCN2CCCCC2C(=O)Nc2c(C)cccc2C)CCOC(C)C1 (stereo not shown) [Example 48 product] | 73 | 2 | 15 | 5 | 57 | –
Cc1cccc(C)c1NC(=O)C[N+]1(CCCCN2CCCCC2C(=O)Nc2c(C)cccc2C)CCOCC1C (stereo not shown) [Example 49 product] | 62 | 1 | 20 | 4 | 45 | –
Cc1cccc(C)c1NC(=O)C[N+]1(CCCCN2CCCCC2C(=O)Nc2c(C)cccc2C)CC(C)OC(C)C1 (stereo not shown) [Example 50 product] | 56 | 2 | 13 | 5 | 56 | –
Cc1cccc(C)c1NC(=O)C[N+]1(CCCCN2CCCCC2C(=O)Nc2c(C)cccc2C)C(C)COCC1C (stereo not shown) [Example 51 product] | 89 | 1 | 19 | 5 | 44 | –
Cc1cccc(C)c1NC(=O)C[N+]1(CCCCCCN2CCCCC2C(=O)Nc2c(C)cccc2C)CCOCC1 (stereo not shown) [Example 52 product] | 85 | 3 | 15 | 2 | 56 | –
Cc1cccc(C)c1NC(=O)C[N+]1(CCCCCCN2CCCCC2C(=O)Nc2c(C)cccc2C)CCOC(C)C1 (stereo not shown) [Example 54 product] | 69 | 2 | 15 | 5 | 66 | –
CCCCC[N+](CCCS)(CCCCCCCCN1CCCCCCC1C(=O)Nc1c(C)cccc1C)CC(=O)Nc1c(C)cccc1C (stereo not shown) [Example 57 product] | 85 | 1 | 13 | 5 | 69 | –
Cc1cccc(C)c1NC(=O)C[N+]1(CCCSCCCN2CCCCC2C(=O)Nc2c(C)cccc2C)CC(C)OC(C)C1 (stereo not shown) [Example 58 product] | 71 | 2 | 16 | 3 | 57 | –
CCCCC[N+](CCO)(CCCCCCN1CCCC1C(=O)Nc1c(C)cccc1C)CC(=O)Nc1c(C)cccc1C (stereo not shown) [Example 59 product] | 72 | 1 | 15 | 1 | 54 | –
Cc1cccc(C)c1NC(=O)C[N+](CCO)(CCCCO)CCCCCCN1CCCC1C(=O)Nc1c(C)cccc1C (stereo not shown) [Example 60 product] | 66 | 2 | 20 | 1 | 54 | –
CCOCC[N+](CCO)(CCCCCCN1CCCC1C(=O)Nc1c(C)cccc1C)CC(=O)Nc1c(C)cccc1C (stereo not shown) [Example 61 product] | 86 | 1 | 11 | 3 | – | –
CCSCC[N+](CCO)(CCCCCCN1CCCC1C(=O)Nc1c(C)cccc1C)CC(=O)Nc1c(C)cccc1C (stereo not shown) [Example 62 product] | 88 | 1 | 21 | 5 | 51 | –
CCCCC[N+](CCCCCCN1CCC1C(=O)Nc1c(C)cccc1C)(CCSCC)CC(=O)Nc1c(C)cccc1C (stereo not shown) [Example 63 product] | 79 | 1 | 14 | 3 | 64 | –
CCCCC[N+](CCCCO)(CCCCCCN1CCC1C(=O)Nc1c(C)cccc1C)CC(=O)Nc1c(C)cccc1C (stereo not shown) [Example 64 product] | 69 | 1 | 13 | 3 | 67 | –
CCCCC[N+](CCCCC)(CCCCCCN1CCC1C(=O)Nc1c(C)cccc1C)CC(=O)Nc1c(C)cccc1C (stereo not shown) [Example 65 product] | 68 | 1 | 19 | 5 | 59 | –
Cc1cccc(C)c1NC(=O)C[N+](CCCCO)(CCCCO)CCCCCCN1CCC1C(=O)Nc1c(C)cccc1C (stereo not shown) [Example 66 product] | 87 | 1 | 10 | 1 | 60 | –
CCOCC[N+](CCCCCCN1CCC1C(=O)Nc1c(C)cccc1C)(CCOCC)CC(=O)Nc1c(C)cccc1C (stereo not shown) [Example 67 product] | 58 | 1 | 14 | 1 | 67 | –
CCCCC[N+](CCCCC)(CCCCCCCN1CCCCCC1C(=O)Nc1c(C)cccc1C)CC(=O)Nc1c(C)cccc1C (stereo not shown) [Example 68 product] | 73 | 3 | 21 | 1 | 79 | –
CCCCC[N+](CCCCS)(CCCCCCCN1CCCCCC1C(=O)Nc1c(C)cccc1C)CC(=O)Nc1c(C)cccc1C (stereo not shown) [Example 69 product] | 80 | 1 | 10 | 1 | 62 | –
CCCCC[N+](CCCCCCCN1CCCCCC1C(=O)Nc1c(C)cccc1C)(CCOCC)CC(=O)Nc1c(C)cccc1C (stereo not shown) [Example 70 product] | 75 | 4 | 17 | 2 | 53 | –
CCCCCCCCCC[N+](CO)(CCOCCN1CCCCC1C(=O)Nc1c(C)cccc1C)CC(=O)Nc1c(C)cccc1C (stereo not shown) [Example 72 product] | 72 | 1 | 10 | 1 | 65 | –
CCCCCC[N+](CCCCCC)(CCCN1CCCCC1C(=O)Nc1c(C)cccc1C)CC(=O)Nc1c(C)cccc1C (stereo not shown) [Example 73 product] | 59 | 2 | 20 | 3 | 51 | –
CCCCCCCC[N+](CCCCCCC)(CCCN1CCCCC1C(=O)Nc1c(C)cccc1C)CC(=O)Nc1c(C)cccc1C (stereo not shown) [Example 74 product] | 56 | 1 | 17 | 1 | 72 | –
CCCCCCC[N+](CCCCC)(CCOCCN1CCCCC1C(=O)Nc1c(C)cccc1C)CC(=O)Nc1c(C)cccc1C (stereo not shown) [Example 76 product] | 64 | 2 | 14 | 3 | 59 | –
CC[N+](CC)(CC)CC(=O)Nc1c(C)cccc1C [QX314] | – | – | – | – | – | more than 8 hours
